Laboratory results reported in patent publication US20040048237A1 (priority 2002, published 2004).
Peptide text beside a SMILES is read from it. * marks the point of attachment. Cbz = O=C(OCc1ccccc1)*

What was measured:
proteasome = assay type: cell-based

Row | Compound | proteasome activity after MG132 treatment (proteasome) | proteasome activity restored after removal of MG132 (proteasome) | relative proteasome inhibiting activity (proteasome) | cells died (N2A cells) | cell death during proteasome inhibition relative to N2A cells (WtPN2A cells) | rate of N2A cell death (N2A cells)
1 | CC(C)C[C@@H](C=O)NC(=O)[C@H](CC(C)C)NC(=O)[C@H](CC(C)C)NC(=O)OCc1ccccc1 [MG132] (Cbz-Leu-Leu-Leu-aldehyde) | undetectable | > 70 % of control levels | stronger proteasome inhibiting activity than 10 μM Lactacystin | More than 50% | died much more rapidly | –
2 | epoxomicin | – | – | – | – | – | died at the same rates
